For 27 compounds, IC50 results are on record in patent publication US8575163B2, “Pyrrolopyridinylpyrimidin-2-ylamine derivatives” (Merck Patent GmbH, priority 2009, dated 2013).

One may read the IC50 as the midpoint of a concentration-inhibition curve.

For one assay, the target named is T1, PDK1 (Homo sapiens, UniProt O15530).
T1 construct: His6 (N)
T1 sequence (O15530 51-556 limits assumed): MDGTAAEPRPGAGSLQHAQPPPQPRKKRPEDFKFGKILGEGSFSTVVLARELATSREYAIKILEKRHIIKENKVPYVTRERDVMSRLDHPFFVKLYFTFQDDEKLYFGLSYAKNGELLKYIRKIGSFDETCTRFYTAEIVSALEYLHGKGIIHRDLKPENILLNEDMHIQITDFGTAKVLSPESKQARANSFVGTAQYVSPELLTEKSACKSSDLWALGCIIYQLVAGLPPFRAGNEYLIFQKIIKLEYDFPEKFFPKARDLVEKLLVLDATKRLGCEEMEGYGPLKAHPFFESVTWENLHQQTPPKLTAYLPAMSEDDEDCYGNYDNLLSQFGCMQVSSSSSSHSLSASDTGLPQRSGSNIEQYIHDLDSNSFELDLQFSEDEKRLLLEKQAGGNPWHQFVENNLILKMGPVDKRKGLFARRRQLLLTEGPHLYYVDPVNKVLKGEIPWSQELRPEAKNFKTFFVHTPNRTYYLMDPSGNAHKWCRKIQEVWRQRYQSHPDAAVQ
The experiment in a line: Test for the inhibition of PDK1 (flashplate, 33P-ATP). The following applies: His6-PDK1 3.4 nM, 4 μM ATP, 30° C., 60 min. Type of assay: biochemical. The method in brief:
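His6-PDK1(1-50) (3.4 nM) and a biotinylated peptide substrate (400 nM) were incubated 60 min at 30° C with 4 μM ATP containing ^33P-ATP and test compound. Incorporated radioactivity was counted after subtracting a 100 nM staurosporine blank and expressed as % of control; IC50 derived from these.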

In assay [1] the test system is PDK1 kinase activity (phospho-T308-PKB) in PC3 cells. In words: Cellular testing of PDK1 kinase inhibitors in PC3 cells (Luminex, phospho-T308-PKB). Type of assay: cell-based. The following applies: 30 min incubation, serum-free, read-out: IC50 PC3 cells [P-PKB T308]. On the procedure: Method for the Cellular Testing of PDK1 Kinase Inhibitors in PC3 Cells.
The cellular assay for the determination of the PDK1 kinase activity is carried out as a Luminex assay in the 96-well format. PC3 cells are shown at 20,000 cells per well in 100 μl of medium (45% of […]/45% of Ham's F12/10% of FCS) and incubated on the following day for 30 min with a serial dilution of the test substance (7 concentrations) under serum-free conditions. The cells are subsequently lysed using 90 μl of lysis buffer (20 mM tris/HCl pH 8.0, 150 mM NaCl, 1% of NP40, 10% of glycerol, 1% of phosphatase inhibitor I, 1% of phosphatase inhibitor II, 0.1% of protease inhibitor cocktail III, 0.01% of benzonase) per well, and the lysates are separated off from insoluble cell constituents by means of centrifugation through a 96-well filter plate (0.65 μm). The lysates are incubated overnight at 4° C. with shaking with Luminex beads to which an anti-total PKB antibody is coupled. The detection is carried out on the following day by addition of a phospho-T308-PKB antibody and a species-specific peroxidase-labelled secondary antibody. The detection of phospho-T308-PKB is carried out by measurement in a Luminex100 instrument by determination of 100 events per cavity in a measurement time of 60 sec. As pharmacological blank, the signals obtained from cells which have been treated with 10 μM staurosporin are subtracted from all other batches. The control value used for maximum phosphorylation of PKB on T308 are the signals from cells which have only been treated with the solvent (0.3% of DMSO). The values of the batches treated with test substance are calculated therefrom as percentage of control, and IC50 values are determined by means of RS1.

Read-outs that look alike come from different tables or passages of the source.

`Cn1cc(-c2cnc3[nH]cc(-c4cc(C(C)(O)c5ccncc5)nc(N)n4)c3c2)cn1` (single isomer, unassigned) [A41, 1-{2-amino-6-[5-(1-methyl-1H-pyrazol-4-yl)-1H-pyrrolo[2,3-b]pyridin-3-yl]-pyrimidin-4-yl}-1-pyridin-4-ylethanol]: the IC50 on PDK1 stood at 3.4 nM; in assay [1] (Homo sapiens, PC-3, 0.5 h), 980 nM.

As for `Cn1cc(-c2cnc3[nH]cc(-c4cc(C(C)(O)c5ccncc5)nc(N)n4)c3c2)cn1` (single isomer, unassigned) [A42, 1-{2-amino-6-[5-(1-methyl-1H-pyrazol-4-yl)-1H-pyrrolo[2,3-b]pyridin-3-yl]-pyrimidin-4-yl}-1-pyridin-4-ylethanol], the IC50 against PDK1 worked out at 3.2 nM; in assay [1] it was 950 nM.

As for `CC[C@](O)(c1ccncc1)c1cc(-c2c[nH]c3ncc(-c4cnn(CC(=O)N5CCCCC5)c4)cc23)nc(N)n1` (single isomer, unassigned) [A45], the IC50 at PDK1 was found to be 8 nM; in assay [1] (Homo sapiens, PC-3, 0.5 h), 348 nM.

With `Cn1cc(-c2cnc3[nH]cc(-c4cc(C(C)(O)c5ccccc5F)nc(N)n4)c3c2)cn1` (single isomer, unassigned) [A103, 1-{2-amino-6-[5-(1-methyl-1H-pyrazol-4-yl)-1H-pyrrolo[2,3-b]pyridin-3-yl]-pyrimidin-4-yl}-1-(2-fluorophenyl)ethanol], the IC50 on PDK1 stood at 10 nM; in assay [1] (Homo sapiens, PC-3, 0.5 h), 61 nM.

Regarding `Cn1cc(-c2cnc3[nH]cc(-c4cc(C(C)(O)c5ccccc5F)nc(N)n4)c3c2)cn1` (single isomer, unassigned) [A104, 1-{2-amino-6-[5-(1-methyl-1H-pyrazol-4-yl)-1H-pyrrolo[2,3-b]pyridin-3-yl]-pyrimidin-4-yl}-1-(2-fluorophenyl)ethanol], the IC50 against PDK1 turned out to be 16 nM; in assay [1] it was 41 nM.

Consider `CC[C@@](O)(c1ccc(F)cc1)c1cc(-c2c[nH]c3ncc(-c4cnn(C)c4)cc23)nc(N)n1` (single isomer, unassigned) [A121], for which the concentration for half-maximal inhibition (IC50) was 48 nM against PDK1 and 18 nM in assay [1] (Homo sapiens, PC-3, 0.5 h).

As to `CC[C@](O)(c1ccc(F)cc1)c1cc(-c2c[nH]c3ncc(-c4cnn(C)c4)cc23)nc(N)n1` (single isomer, unassigned) [A122], the IC50 against PDK1 was determined as 71 nM; in assay [1] (Homo sapiens, PC-3, 0.5 h), 18 nM.

As for `Cn1cc(-c2cnc3[nH]cc(-c4cc([C@@](O)(c5ccccc5)C(F)(F)F)nc(N)n4)c3c2)cn1` (single isomer, unassigned) [A123], the IC50 at PDK1 was found to be 78 nM; in assay [1] (Homo sapiens, PC-3, 0.5 h), 250 nM.

For the compound `Cn1cc(-c2cnc3[nH]cc(-c4cc([C@](O)(c5ccccc5)C(F)(F)F)nc(N)n4)c3c2)cn1` (single isomer, unassigned) [A124], the concentration for half-maximal inhibition (IC50) stood at 170 nM against PDK1 and 48 nM in assay [1] (Homo sapiens, PC-3, 0.5 h).

In the case of `CC[C@](O)(c1cc(-c2c[nH]c3ncc(-c4cnn(C)c4)cc23)nc(N)n1)c1cccc(F)c1F` (single isomer, unassigned) [A125], the IC50 against PDK1 worked out at 7.9 nM; in assay [1] (Homo sapiens, PC-3, 0.5 h), 14 nM.

For the compound `CC[C@@](O)(c1cc(-c2c[nH]c3ncc(-c4cnn(C)c4)cc23)nc(N)n1)c1cccc(F)c1F` (single isomer, unassigned) [A126], the concentration for half-maximal inhibition (IC50) is 66 nM on PDK1 and 2 nM in assay [1] (Homo sapiens, PC-3, 0.5 h).

For the compound `CC(C)[C@@](O)(c1ccccc1)c1cc(-c2c[nH]c3ncc(-c4cnn(C)c4)cc23)nc(N)n1` (single isomer, unassigned) [A127], the concentration for half-maximal inhibition (IC50) against PDK1 amounted to 28 nM; in assay [1] (Homo sapiens, PC-3, 0.5 h) it was 11 nM.

As to `CC(C)[C@](O)(c1ccccc1)c1cc(-c2c[nH]c3ncc(-c4cnn(C)c4)cc23)nc(N)n1` (single isomer, unassigned) [A128], the half-inhibitory concentration (IC50) came to 260 nM on PDK1 and 470 nM in assay [1] (Homo sapiens, PC-3, 0.5 h).

`CCC[C@@](O)(c1cc(-c2c[nH]c3ncc(-c4cnn(C)c4)cc23)nc(N)n1)c1ccccc1F` (single isomer, unassigned) [A129]: the IC50 amounted to 16 nM on PDK1 and 7 nM in assay [1] (Homo sapiens, PC-3, 0.5 h).

As for `CCC[C@](O)(c1cc(-c2c[nH]c3ncc(-c4cnn(C)c4)cc23)nc(N)n1)c1ccccc1F` (single isomer, unassigned) [A130], the half-maximal inhibitory concentration (IC50) against PDK1 was found to be 71 nM; in assay [1] (Homo sapiens, PC-3, 0.5 h) it was 18 nM.

In turn, `CCCC(C)(O)c1cc(-c2c[nH]c3ncc(-c4cnn(C(C)C)c4)cc23)nc(N)n1` (stereo not drawn) [A87, 2-{2-amino-6-[5-(1-isopropyl-1H-pyrazol-4-yl)-1H-pyrrolo[2,3-b]pyridin-3-yl]-pyrimidin-4-yl}pentan-2-ol] returned a half-inhibitory concentration (IC50) at PDK1 of 16 nM.

The compound `CC(C)n1cc(-c2cnc3[nH]cc(-c4cc(C(C)(O)C(C)C)nc(N)n4)c3c2)cn1` (stereo not drawn) [A88, 2-{2-amino-6-[5-(1-isopropyl-1H-pyrazol-4-yl)-1H-pyrrolo[2,3-b]pyridin-3-yl]-pyrimidin-4-yl}-3-methylbutan-2-ol] displayed an IC50 against PDK1 of 28 nM.

Turning to `Cc1ccccc1C(C)(O)c1cc(-c2c[nH]c3ncc(-c4cnn(CCO)c4)cc23)nc(N)n1` (stereo not drawn) [A89, 1-(2-amino-6-{5-[1-(2-hydroxyethyl)-1H-pyrazol-4-yl]-1H-pyrrolo[2,3-b]-pyridin-3-yl}pyrimidin-4-yl)-1-o-tolylethanol], half-maximal inhibition on PDK1 (IC50) was put at 19 nM.

`Cc1cccc(C(C)(O)c2cc(-c3c[nH]c4ncc(-c5cnn(CCO)c5)cc34)nc(N)n2)c1` (stereo not drawn) [A94, 1-(2-amino-6-{5-[1-(2-hydroxyethyl)-1H-pyrazol-4-yl]-1H-pyrrolo[2,3-b]-pyridin-3-yl}pyrimidin-4-yl)-1-m-tolylethanol] had an IC50 at PDK1 of 60 nM.

The compound `CNc1nc(-c2c[nH]c3ncc(-c4cnn(CCO)c4)cc23)cc(C(C)(O)c2ccccc2)n1` (stereo not drawn) [A95, 1-(6-{5-[1-(2-hydroxyethyl)-1H-pyrazol-4-yl]-1H-pyrrolo[2,3-b]pyridin-3-yl}-2-methylaminopyrimidin-4-yl)-1-phenylethanol] showed an IC50 against PDK1 of 18 nM.

`CCC(O)(c1ccccc1)c1cc(-c2c[nH]c3ncc(-c4cnn(CCO)c4)cc23)nc(N)n1` (stereo not drawn) [A98, 1-(2-amino-6-{5-[1-(2-hydroxyethyl)-1H-pyrazol-4-yl]-1H-pyrrolo[2,3-b]-pyridin-3-yl}pyrimidin-4-yl)-1-phenylpropan-1-ol]: the IC50 against PDK1 came to 12 nM.

On PDK1, `CC(O)(c1ccccc1)c1cc(-c2c[nH]c3ncc(-c4cnn(CCO)c4)cc23)nc(N)n1` (stereo not drawn) [A99, 1-(2-amino-6-{5-[1-(2-hydroxyethyl)-1H-pyrazol-4-yl]-1H-pyrrolo[2,3-b]-pyridin-3-yl}pyrimidin-4-yl)-1-phenylethanol] came in with an IC50 of 41 nM.

With `CC(O)(c1ccccc1)c1cc(-c2c[nH]c3ncc(-c4cncnc4)cc23)nc(N)n1` (stereo not drawn) [A100, 1-[2-amino-6-(5-pyrimidin-5-yl-1H-pyrrolo[2,3-b]pyridin-3-yl)pyrimidin-4-yl]-1-phenylethanol], the 50% inhibitory concentration (IC50) at PDK1 turned out to be 1700 nM.

`CC(O)(c1ccccc1)c1cc(-c2c[nH]c3ncc(-c4ccnnc4)cc23)nc(N)n1` (stereo not drawn) [A101, 1-[2-amino-6-(5-pyridazin-4-yl-1H-pyrrolo[2,3-b]pyridin-3-yl)pyrimidin-4-yl]-1-phenylethanol]: at PDK1, the midpoint of inhibition, the IC50, lay at 740 nM.

The compound `COCOC(C)(c1ccnc(C)c1)c1cc(-c2c[nH]c3ncc(-c4cnn(C)c4)cc23)nc(N)n1` (stereo not drawn) [A108, 4-[1-methoxymethoxy-1-(2-methylpyridin-4-yl)ethyl]-6-[5-(1-methyl-1H-pyrazol-4-yl)-1H-pyrrolo[2,3-b]pyridin-3-yl]pyrimidin-2-ylamine] had a half-maximal inhibitory concentration (IC50) at PDK1 of 49 nM.

`Cn1cc(-c2cnc3[nH]cc(-c4cc(C(C)(O)c5ccnnc5)nc(N)n4)c3c2)cn1` (stereo not drawn) [A109, 1-{2-amino-6-[5-(1-methyl-1H-pyrazol-4-yl)-1H-pyrrolo[2,3-b]pyridin-3-yl]-pyrimidin-4-yl}-1-pyridazin-4-ylethanol] had a 50% inhibitory concentration (IC50) at PDK1 of 7.8 nM.

At PDK1, `Cn1cc(-c2cnc3[nH]cc(-c4cc(C(C)(O)c5ccc(=O)[nH]c5)nc(N)n4)c3c2)cn1` (stereo not drawn) [A111, 5-(1-{2-amino-6-[5-(1-methyl-1H-pyrazol-4-yl)-1H-pyrrolo[2,3-b]pyridin-3-yl]-pyrimidin-4-yl}-1-hydroxyethyl)-1H-pyridin-2-one] displayed a concentration for half-maximal inhibition (IC50) of 26 nM.
